{"source": "DBAASP", "experiment_in_all_cases": "≥ marks a high value that may be exact or a test limit, other limits are often not marked, values filed in µg/mL are converted to µM", "key": {"[1]": {"tested_on": "Cladosporium sp."}, "[2]": {"tested_on": "Escherichia coli SBS 363"}, "[3]": {"tested_on": "Micrococcus luteus A270"}, "[4]": {"tested_on": "Cryptococcus neoformans"}, "[5]": {"tested_on": "Pseudomonas aeruginosa ATCC 27853"}, "[6]": {"tested_on": "Penicillium expansum"}, "[7]": {"tested_on": "Staphylococcus aureus ATCC 29213"}, "[8]": {"tested_on": "Staphylococcus epidermidis ATCC 12228"}, "[9]": {"tested_on": "Klebsiella pneumoniae ATCC 13866"}, "[10]": {"tested_on": "Escherichia coli ATCC 11229"}, "[11]": {"tested_on": "Staphylococcus aureus ATCC 33591"}, "[12]": {"tested_on": "Staphylococcus aureus ATCC 25923"}, "[13]": {"tested_on": "Klebsiella pneumoniae ATCC 49472"}, "[14]": {"tested_on": "Enterococcus faecalis ATCC 51299"}, "[15]": {"tested_on": "Klebsiella pneumoniae ATCC BAA-2814"}, "[16]": {"tested_on": "Staphylococcus aureus ATCC 12600"}, "[17]": {"tested_on": "Escherichia coli ATCC 35218"}, "[18]": {"tested_on": "Staphylococcus aureus ATCC BAA-2312"}, "[19]": {"tested_on": "Salmonella enterica subsp. enterica serovar Typhimurium ATCC 14028"}, "[20]": {"tested_on": "Escherichia coli ATCC 25922"}, "[21]": {"tested_on": "Acinetobacter baumannii BCRC 14B0100"}, "[22]": {"tested_on": "Pseudomonas putida NBRC 100650"}, "[23]": {"tested_on": "Aspergillus oryzae NBRC 100959"}, "[24]": {"tested_on": "Micrococcus luteus NBRC 3333"}, "[25]": {"tested_on": "Candida viswanathii NBRC 10321"}, "[26]": {"tested_on": "Staphylococcus epidermidis NBRC 12993"}, "[27]": {"tested_on": "Escherichia coli NBRC 3972"}, "[28]": {"tested_on": "Staphylococcus aureus ATCC 43300"}, "[29]": {"tested_on": "Lacticaseibacillus rhamnosus 1.0385"}, "[30]": {"tested_on": "Lacticaseibacillus rhamnosus 1.0925"}, "[31]": {"tested_on": "Lactiplantibacillus plantarum 8014"}, "[32]": {"tested_on": "Escherichia coli UB1005"}, "[33]": {"tested_on": "Lacticaseibacillus rhamnosus 1.0911"}, "[34]": {"tested_on": "Lacticaseibacillus rhamnosus 7469"}, "[35]": {"tested_on": "Lacticaseibacillus rhamnosus 1.0386"}}, "note": "Several values for one entry are separate records, joined by “and”; a condition that tells them apart may be missing. Equal values may be shown once."}
{"smiles": "CSCC[C@H](NC(=O)CNC(=O)[C@H](Cc1ccccc1)NC(=O)[C@H](Cc1ccccc1)NC(=O)CNC(=O)[C@H](C)NC(=O)[C@H](C)NC(=O)[C@@H]1CCCN1C(=O)[C@H](C)N)C(=O)N[C@@H](CCCN=C(N)N)C(=O)O", "note": "[APAAGFFGMR]", "values": [{"measurement": "MIC", "setting": "[1]", "value": "≥ 164", "unit": "µM"}, {"measurement": "MIC", "setting": "[2]", "value": "≥ 82", "unit": "µM"}, {"measurement": "MIC", "setting": "[3]", "value": "≥ 164", "unit": "µM"}, {"measurement": "MIC", "setting": "[4]", "value": "≥ 164", "unit": "µM"}, {"measurement": "MIC", "setting": "[5]", "value": "164 µM and > 82 µM"}, {"measurement": "MIC", "setting": "[6]", "value": "≥ 164", "unit": "µM"}]}
{"smiles": "CC[C@H](C)[C@H](NC(=O)CN)C(=O)N[C@@H](C)C(=O)NCC(=O)N[C@@H](CC(C)C)C(=O)N[C@@H](CC(C)C)C(=O)N[C@@H](CCCN=C(N)N)C(=O)N[C@@H](CO)C(=O)N[C@@H](Cc1ccccc1)C(=O)N[C@H](C(=O)N[C@@H](CCCN=C(N)N)C(=O)N[C@@H](CCSC)C(=O)N[C@@H](CC(C)C)C(=O)N[C@@H](C)C(=O)N[C@@H](CCCCN)C(=O)N[C@H](C(=O)N[C@@H](CCSC)C(=O)NCC(=O)NCC(=O)O)[C@@H](C)CC)C(C)C", "note": "[GIAGLLRSFVRMLAKIMGG]", "values": [{"measurement": "MIC", "setting": "[7]", "value": 32.2, "unit": "µM"}, {"measurement": "MIC", "setting": "[8]", "value": 32.2, "unit": "µM"}, {"measurement": "MIC", "setting": "[9]", "value": "≥ 32.2", "unit": "µM"}, {"measurement": "MIC", "setting": "[10]", "value": "≥ 32.2", "unit": "µM"}, {"measurement": "MIC", "setting": "[11]", "value": "≥ 64.3", "unit": "µM"}, {"measurement": "MIC", "setting": "[5]", "value": 8.04, "unit": "µM"}, {"measurement": "MIC", "setting": "[12]", "value": 32.2, "unit": "µM"}]}
{"smiles": "CC[C@H](C)[C@H](NC(=O)[C@H](CCC(N)=O)NC(=O)[C@H](CO)NC(=O)[C@H](C)NC(=O)[C@H](CC(C)C)NC(=O)[C@H](Cc1cnc[nH]1)NC(=O)[C@@H](NC(=O)[C@H](CC(C)C)NC(=O)[C@H](CC(C)C)NC(=O)CNC(=O)[C@H](CCCCN)NC(=O)CNC(=O)[C@H](C)NC(=O)CNC(=O)[C@H](CCCCN)NC(=O)[C@H](CC(C)C)NC(=O)[C@H](CC(C)C)NC(=O)[C@H](CC(=O)O)NC(=O)[C@H](CC(C)C)NC(=O)[C@H](CC(C)C)NC(=O)CN)[C@@H](C)O)C(N)=O", "note": "[GLLDLLKGAGKGLLTHLASQI]", "values": [{"measurement": "MIC", "setting": "[13]", "value": "≥ 125", "unit": "µM"}, {"measurement": "MIC", "setting": "[14]", "value": "≥ 250", "unit": "µM"}, {"measurement": "MIC", "setting": "[15]", "value": "≥ 125", "unit": "µM"}, {"measurement": "MIC", "setting": "[16]", "value": "≥ 250", "unit": "µM"}, {"measurement": "MIC", "setting": "[17]", "value": "≥ 62.5", "unit": "µM"}, {"measurement": "MIC", "setting": "[18]", "value": "≥ 250", "unit": "µM"}, {"measurement": "MIC", "setting": "[19]", "value": 250, "unit": "µM"}]}
{"smiles": "CC[C@H](C)[C@H](NC(=O)[C@H](CCCN=C(N)N)NC(=O)[C@H](CCC(N)=O)NC(=O)[C@@H](NC(=O)[C@@H](NC(=O)[C@H](CCCN=C(N)N)NC(=O)[C@H](CCCCN)NC(C)=O)[C@@H](C)CC)C(C)C)C(=O)N[C@@H](CCCCN)C(=O)N[C@@H](CC(=O)O)C(=O)N[C@@H](Cc1ccccc1)C(=O)N[C@@H](CC(C)C)C(=O)N[C@@H](CCCN=C(N)N)C(=O)N[C@@H](C)C(=O)NCC(=O)N1CCC[C@H]1C(=O)N[C@@H](CCCN=C(N)N)C(=O)N[C@@H](CCCN=C(N)N)C(=O)N[C@@H](Cc1c[nH]c2ccccc12)C(=O)N[C@@H](Cc1c[nH]c2ccccc12)C(=O)N[C@@H](CCCN=C(N)N)C(=O)N[C@@H](Cc1c[nH]c2ccccc12)C(N)=O", "note": "[KRIVQRIKDFLRAGPRRWWRW]", "values": [{"measurement": "MIC", "setting": "[20]", "value": "1.42 µM and 0.708 µM"}, {"measurement": "MIC", "setting": "[21]", "value": "0.708 µM and 1.42 µM"}, {"measurement": "MIC", "setting": "[5]", "value": "0.708 µM and 1.42 µM"}, {"measurement": "MIC", "setting": "[12]", "value": "1.42 µM and 0.708 µM"}]}
{"smiles": "CC[C@H](C)[C@H](NC(=O)[C@H](CCCCN)NC(=O)[C@@H](N)CCCN=C(N)N)C(=O)N[C@@H](CCCCN)C(=O)N[C@H](C(=O)N[C@@H](Cc1ccc(O)cc1)C(=O)N[C@@H](CC(C)C)C(=O)N[C@@H](CCCN=C(N)N)C(=O)N[C@@H](CCCN=C(N)N)C(=O)N[C@@H](CCSC)C(=O)N[C@@H](CCCCN)C(=O)O)C(C)C", "note": "[RKIKVYLRRMK]", "values": [{"measurement": "MIC", "setting": "[22]", "value": "≥ 33.5", "unit": "µM"}, {"measurement": "MIC", "setting": "[23]", "value": 8.38, "unit": "µM"}, {"measurement": "MIC", "setting": "[24]", "value": 8.38, "unit": "µM"}, {"measurement": "MIC", "setting": "[25]", "value": 8.38, "unit": "µM"}, {"measurement": "MIC", "setting": "[26]", "value": "≥ 33.5", "unit": "µM"}, {"measurement": "MIC", "setting": "[27]", "value": 8.38, "unit": "µM"}]}
{"smiles": "NC(=O)[C@H](CCCN=C(N)N)NC(=O)[C@H](CCCN=C(N)N)NC(=O)[C@H](Cc1c[nH]c2ccccc12)NC(=O)[C@H](CO)NC(=O)[C@H](Cc1c[nH]c2ccccc12)NC(=O)[C@H](Cc1c[nH]c2ccccc12)NC(=O)[C@H](Cc1c[nH]c2ccccc12)NC(=O)[C@H](CO)NC(=O)[C@H](Cc1c[nH]c2ccccc12)NC(=O)[C@H](CCCN=C(N)N)NC(=O)[C@@H](N)CCCN=C(N)N", "note": "[RRWSWWWSWRR]", "values": [{"measurement": "MIC", "setting": "[28]", "value": 2, "unit": "µM"}, {"measurement": "MIC", "setting": "[29]", "value": "≥ 64", "unit": "µM"}, {"measurement": "MIC", "setting": "[30]", "value": "≥ 64", "unit": "µM"}, {"measurement": "MIC", "setting": "[31]", "value": "≥ 64", "unit": "µM"}, {"measurement": "MIC", "setting": "[32]", "value": 2, "unit": "µM"}, {"measurement": "MIC", "setting": "[8]", "value": 4, "unit": "µM"}, {"measurement": "MIC", "setting": "[33]", "value": "≥ 64", "unit": "µM"}, {"measurement": "MIC", "setting": "[5]", "value": 4, "unit": "µM"}, {"measurement": "MIC", "setting": "[34]", "value": "≥ 64", "unit": "µM"}, {"measurement": "MIC", "setting": "[35]", "value": "≥ 64", "unit": "µM"}]}
